We go through 84 compounds from the supplement of paper PMC9151546.

Where a name gives a salt, the structure may show the parent alone. ± gives the standard deviation of the averaged measurements.

The subject of one experiment is CHO-K1. The experiment in a line: benchmark concentration for 60% increase in hypodiploid frequency (BMC60); higher = less potent aneugen. The following applies: S9 metabolic activation: with S9. The protocol:
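Benchmark concentration modelling (PROAST, Hill/exponential model families) of the 19-concentration flow-cytometric micronucleus assay in CHO-K1 cells, with and without rat liver S9. Only non-cytotoxic and adequate (relative survival >=40%) concentrations were used. BMR was a 30% increase in %MN (BMC30) or a 60% increase in %hypodiploid (BMC60) over control.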
Take `COC(=O)Nc1nc2ccccc2[nH]1` [Carbendazim]: the benchmark concentration was 32 µM.
The same measure, in the same setting: the value for `Nc1cc(Cl)cc(C(=O)O)c1Cl` [Chloramben] was 9.7 µM; that for `CN(C)[C@@H]1C(=O)C(C(N)=O)=C(O)[C@@]2(O)C(=O)C3=C(O)c4c(O)cccc4[C@@](C)(O)[C@H]3[C@H](O)[C@@H]12` [Oxytetracycline hydrochloride] was 110 µM.

Staying with this experiment, now noted: S9 metabolic activation: without S9.
Take `OCCC(F)(F)C(F)(F)C(F)(F)C(F)(F)C(F)(F)C(F)(F)C(F)(F)C(F)(F)F` [1,1,2,2-Tetrahydroperfluoro-1-decanol]: the benchmark concentration came to 95 µM.
The same measure, in the same setting: the value for `c1ccc2n[nH]nc2c1` [1,2,3-Benzotriazole] was 93 µM; that for `Clc1cccc(Cl)c1Cl` [1,2,3-Trichlorobenzene] was 32 µM.
Same read-out and setting: the value for `Clc1cc(Cl)c(Cl)cc1Cl` [1,2,4,5-Tetrachlorobenzene] was 110 µM; that for `Clc1ccc(Cl)c(Cl)c1` [1,2,4-Trichlorobenzene] was 100 µM; that for `Cc1ccc([N+](=O)[O-])cc1C` [1,2-Dimethyl-4-nitrobenzene] was 89 µM.
As to `Nc1ccccc1N` [1,2-Phenylenediamine], the benchmark concentration is 47 µM.
Take `CC1(C)C(=O)N(Br)C(=O)N1Br` [1,3-Dibromo-5,5-dimethylhydantoin]: the benchmark concentration is 93 µM.
The compound `OC(CCl)CCl` [1,3-Dichloro-2-propanol] returned a benchmark concentration of 75 µM.
In the case of `Clc1cccc(Cl)c1` [1,3-Dichlorobenzene], the benchmark concentration was 160 µM.
On the same count and under the same terms, the value for `O=C=NCCCCCCN=C=O` [1,6-Diisocyanatohexane] was 100 µM; that for `O=[N+]([O-])c1ccc(Cl)cc1` [1-Chloro-4-nitrobenzene] was 120 µM.
Regarding `CCCCCCCCCCO` [1-Decanol], the benchmark concentration is 120 µM.
The same measure, in the same setting: the value for `CC(C)C(=O)OCC(C)(C)C(OC(=O)C(C)C)C(C)C` (stereo unspecified) [2,2,4-Trimethyl-1,3-pentanediol diisobutyrate] was 190 µM; that for `c1ccc2occc2c1` [2,3-Benzofuran] was 61 µM.
Consider `CC(C)(C)OOC(C)(C)CCC(C)(C)OOC(C)(C)C` [2,5-Dimethyl-2,5-di-(tert-butylperoxy)hexane], for which the benchmark concentration came out at 60 µM.
`Cc1cccc(C)c1N` [2,6-Dimethylaniline] came in with a benchmark concentration of 87 µM.
Same read-out and setting: the value for `CCCCOCCOCCO` [2-(2-Butoxyethoxy)ethanol] was 100 µM; that for `Oc1ccccc1Cl` [2-Chlorophenol] was 97 µM.
The same measure, in the same setting: the value for `CCCCC(CC)CO` (stereo unspecified) [2-Ethyl-1-hexanol] was 56 µM; that for `COc1ccc([N+](=O)[O-])cc1N` [2-Methoxy-5-nitroaniline] was 90 µM.
Same read-out and setting: the value for `COc1cc(-c2ccc(N)c(OC)c2)ccc1N` [3,3'-Dimethoxybenzidine dihydrochloride] was 7.6 µM; that for `Cc1ccc(N)c(N)c1` [3,4-Diaminotoluene] was 52 µM.
In turn, `CC(C)=CCC/C(C)=C/C=O` [3,7-Dimethyl-2,6-octadienal] registered a benchmark concentration of 28 µM.
Same read-out and setting: the value for `Cc1cn(C2CC(N=[N+]=[N-])C(CO)O2)c(=O)[nH]c1=O` (stereo unspecified) [3-Azido-3-deoxythymidine] was 72 µM; that for `CC(=O)OCCC(C)C` [3-Methylbutyl acetate] was 13 µM; that for `Nc1ccc(Cc2ccc(N)cc2)cc1` [4,4'-Methylenedianiline] was 74 µM.
Still for that read-out and setting: the value for `Nc1ccc(C(=O)O)cc1` [4-Aminobenzoic acid] was 110 µM; that for `C[C@]12CCC(=O)C=C1CC[C@@H]1[C@@H]2CC[C@]2(C)C(=O)CC[C@@H]12` [4-Androstene-3,17-dione] was 34 µM.
On the same count and under the same terms, the value for `Cc1ccc(Cl)cc1` [4-Chlorotoluene] was 60 µM; that for `CCCCCCc1ccc(O)cc1O` [4-Hexylresorcinol] was less than 4.5 µM; that for `COc1cc(C=O)ccc1O` [4-Hydroxy-3-methoxybenzaldehyde] was 53 µM.
Compound `C1CC2OC2CC1C1CO1` (stereo unspecified) [4-Vinyl-1-cyclohexene dioxide] yielded a benchmark concentration of 35 µM.
On the same count and under the same terms, the value for `Cc1ccc(N)cc1O` [5-Amino-2-methylphenol] was 5.3 µM.
The same measure, in the same setting: the value for `C/C=C/c1ccc(OC)cc1` [(E)-Anethole] was 35 µM.
Same read-out and setting: the value for `CC(=O)Nc1ccc(O)cc1` [Acetaminophen] was 36 µM.
For `CC(=O)c1ccccc1` [Acetophenone], the benchmark concentration is 50 µM.
The same measure, in the same setting: the value for `CSC(C)(C)/C=N/O` [Aldicarb oxime] was 40 µM; that for `c1ccc2cc3ccccc3cc2c1` [Anthracene] was 51 µM.
As for `ClC(Cl)c1ccccc1` [Benzal chloride], the benchmark concentration amounted to 91 µM.
The same measure, in the same setting: the value for `O=C(O)c1ccccc1` [Benzoic acid] was 110 µM; that for `ClC(Cl)(Cl)c1ccccc1` [Benzotrichloride] was 45 µM.
On the same count and under the same terms, the value for `NC(=O)N1c2ccccc2C=Cc2ccccc21` [Carbamazepine] was 110 µM; that for `COC(=O)Nc1nc2ccccc2[nH]1` [Carbendazim] was less than 4.5 µM; that for `Cc1c(C(=O)O)c(O)cc2c1C(=O)c1c(O)c([C@@H]3O[C@H](CO)[C@@H](O)[C@H](O)[C@H]3O)c(O)c(O)c1C2=O` [Carminic acid] was 13 µM.
`Nc1cc(Cl)cc(C(=O)O)c1Cl` [Chloramben] showed a benchmark concentration of 110 µM.
In turn, `ClC1=C(Cl)C2(Cl)C3C(Cl)C(Cl)CC3C1(Cl)C2(Cl)Cl` (stereo unspecified) [Chlordane] displayed a benchmark concentration of 54 µM.
The same measure, in the same setting: the value for `CC(C)=CCCC(C)CCO` (stereo unspecified) [Citronellol] was 72 µM; that for `CCOC(=O)C(C)(C)Oc1ccc(Cl)cc1` [Clofibrate] was 130 µM; that for `Oc1ccc(Cl)cc1Cc1ccccc1` [Clorophene] was 34 µM.
On the same count and under the same terms, the value for `O=c1ccc2ccccc2o1` [Coumarin] was 9.7 µM; that for `O=c1[nH]c(=O)[nH]c(=O)[nH]1` [Cyanuric acid] was 91 µM; that for `Nc1ccc(S(=O)(=O)c2ccc(N)cc2)cc1` [Dapsone] was 39 µM.
The same measure, in the same setting: the value for `CCCCCCCCCC(=O)O` [Decanoic acid] was 30 µM; that for `OCCNCCO` [Diethanolamine] was 84 µM.
On to `COCCOCCO` [Diethylene glycol monomethyl ether], for which the benchmark concentration amounted to 90 µM.
On the same count and under the same terms, the value for `CC/C(=C(/CC)c1ccc(O)cc1)c1ccc(O)cc1` [Diethylstilbestrol] was 4.8 µM; that for `CC(C)COC(=O)c1ccccc1C(=O)OCC(C)C` [Diisobutyl phthalate] was 32 µM; that for `COC(=O)CCCCC(=O)OC` [Dimethyl adipate] was 110 µM.
Still for that read-out and setting: the value for `COC(=O)c1ccccc1C(=O)OC` [Dimethyl phthalate] was 120 µM; that for `ClC1=C(Cl)C2(Cl)C3C4CC(C5OC45)C3C1(Cl)C2(Cl)Cl` (stereo unspecified) [Endrin] was less than 4.5 µM; that for `O=S(=O)(O)c1ccc(N=Nc2c(O)ccc3cc(S(=O)(=O)O)ccc23)cc1` [FD&C Yellow 6] was 13 µM.
Compound `OC(Cn1cncn1)(Cn1cncn1)c1ccc(F)cc1F` [Fluconazole] yielded a benchmark concentration of 90 µM.
Same read-out and setting: the value for `CC(C)C(=O)Nc1ccc([N+](=O)[O-])c(C(F)(F)F)c1` [Flutamide] was 17 µM; that for `C/C=C\c1ccc(O)c(OC)c1` [Isoeugenol] was 72 µM; that for `CC(C)NCC(O)c1ccc(O)c(O)c1` (stereo unspecified) [Isoproterenol hydrochloride] was 110 µM.
Turning to `Cc1occc(=O)c1O` [Maltol], the benchmark concentration is 100 µM.
`COC(=O)c1ccccc1N` [Methyl 2-aminobenzoate] gave a benchmark concentration of 77 µM.
The compound `CCc1cccc(C)c1N(C(=O)CCl)C(C)COC` (stereo unspecified) [Metolachlor] registered a benchmark concentration of 180 µM.
Same read-out and setting: the value for `Cc1ccc(N(C)C)cc1` [N,N,4-Trimethylaniline] was 39 µM; that for `CCN(CC)c1ccccc1` [N,N-Diethylaniline] was 77 µM; that for `CN(C)c1ccccc1` [N,N-Dimethylaniline] was 43 µM.
Consider `O=[N+]([O-])c1ccccc1` [Nitrobenzene], for which the benchmark concentration is 26 µM.
The same measure, in the same setting: the value for `O=C(O)C(F)(F)C(F)(F)C(F)(F)C(F)(F)C(F)(F)C(F)(F)C(F)(F)F` [PFOA] was 6.7 µM; that for `Oc1c(Cl)c(Cl)c(Cl)c(Cl)c1Cl` [Pentachlorophenol] was 9 µM; that for `CCc1nc(N)nc(N)c1-c1ccc(Cl)cc1` [Pyrimethamine] was 49 µM.
Same read-out and setting: the value for `O=c1c(O)c(-c2ccc(O)c(O)c2)oc2cc(O)cc(O)c12` [Quercetin] was 110 µM.
The compound `CN(C)C(=S)S` [Sodium dimethyldithiocarbamate] returned a benchmark concentration of 49 µM.
The compound `O=NO` [Sodium nitrite] had a benchmark concentration of 77 µM.
Same read-out and setting: the value for `c1ccc2[nH]c(-c3cscn3)nc2c1` [Thiabendazole] was 14.1 ± 7 µM; that for `CCN(CC)C(=O)SCc1ccc(Cl)cc1` [Thiobencarb] was 113 ± 110 µM; that for `Cc1ccc(C(C)C)c(O)c1` [Thymol] was 100 µM.
On the same count and under the same terms, the value for `O=C(Nc1ccc(Cl)cc1)Nc1ccc(Cl)c(Cl)c1` [Triclocarban] was less than 4.5 µM.
